# Like-named read-outs stand apart in the source and are kept apart here.
# Assays:
# [1] = target: T1, sucrose transporter P62 (StSUT1) (Solanum tuberosum, UniProt Q43653); assay: [14C]-sucrose uptake by yeast strain SUSY-7-P62 (StSUT1) expressing the potato sucrose transporter; assay type: cell-based; conditions: [14C]-sucrose uptake, pH 3.8
# T1 construct: whole-cell [14C]-sucrose uptake; no tag or borders given
# T1 sequence (Q43653 1-516): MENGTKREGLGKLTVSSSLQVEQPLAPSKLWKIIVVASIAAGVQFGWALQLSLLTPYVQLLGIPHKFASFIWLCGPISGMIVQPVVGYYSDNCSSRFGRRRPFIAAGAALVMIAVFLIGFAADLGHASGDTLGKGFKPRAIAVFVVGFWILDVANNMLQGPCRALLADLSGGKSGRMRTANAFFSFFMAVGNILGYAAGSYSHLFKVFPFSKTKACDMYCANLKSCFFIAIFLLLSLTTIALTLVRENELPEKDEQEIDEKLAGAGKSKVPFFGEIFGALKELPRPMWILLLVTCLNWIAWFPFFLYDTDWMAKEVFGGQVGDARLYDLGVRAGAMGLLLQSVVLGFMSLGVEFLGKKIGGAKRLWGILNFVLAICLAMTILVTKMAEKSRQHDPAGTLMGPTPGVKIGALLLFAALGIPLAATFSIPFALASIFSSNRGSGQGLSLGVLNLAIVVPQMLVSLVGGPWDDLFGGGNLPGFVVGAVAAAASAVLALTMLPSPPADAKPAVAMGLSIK
# From the text: Yeast cells of the strain SUSY7 (Riesmeier et al., 1992, EMBO J. 11: 4705-4713) are used to identify substances which have an inhibitory effect on sucrose transporters from potato. Cells of this strain are transformed with a cDNA sequence which codes for the sucrose transporter P62 (StSUT1) from potato (WO 94/00574, Riesmeier et al., 1993, Plant Cell 5:1591-1598) and which ensures expression of a functional transporter in the cells. The resulting yeast strain was called SUSY-7-P62 (StSUT1). The yeast cells are cultured in minimal medium (SD +2% (w/v) sucrose, pH 3.8) at 28° C. and harvested in the logarithmic phase (OD600 =0.6). The cells are spun down at 4000 rpm for 10 minutes and washed twice with SD medium. A cell concentration of c=50 g/l in SD medium is adjusted according to the wet weight of the cells, and 200 Al aliquot fractions are taken. Before the actual reaction, the cells are incubated in 10 mM glucose for 5 min and adjusted to pH 3.8 with MES buffer. The reaction is started by adding 200 Al of a 0.2 mmol/l [14C]-sucrose solution (3 mCi/mmol) in SD medium (pH 3.8). After 20, 60, 120, 180 and 240 seconds, 70 μl portions of the suspension are removed and pipetted into 4 ml of ice-cold water in order to stop the reaction. The cells are filtered off on glass fiber filters and washed twice with ice-cold water. The radioactivity on the filters is subsequently determined in a liquid scintillation counter. The substances to be tested are added 30 seconds before addition of the sucrose. The uptake of radiolabeled sucrose without addition of a potential inhibitor is determined as one control. Cells of the strain SUSY7 which are not transformed with cDNA sequences coding for a sucrose transporter from potato are employed as further control.
# The various tested substances, their concentration and the activity of the transporter, shown as percentage activity of the control in which no potential inhibitors were added, are indicated.
# [2] = target: T2, sucrose transporter S21 (SoSUT1) (Spinacia oleracea, UniProt Q03411); assay: [14C]-sucrose uptake by yeast strain SUSY7 expressing the spinach sucrose transporter; assay type: cell-based; conditions: for remaining activity at 1000 µM: tested substance 1.0 mmol/l
# T2 construct: expressed in transfected cells; host or cells: Saccharomyces cerevisiae SUSY7
# T2 sequence (Q03411 1-525): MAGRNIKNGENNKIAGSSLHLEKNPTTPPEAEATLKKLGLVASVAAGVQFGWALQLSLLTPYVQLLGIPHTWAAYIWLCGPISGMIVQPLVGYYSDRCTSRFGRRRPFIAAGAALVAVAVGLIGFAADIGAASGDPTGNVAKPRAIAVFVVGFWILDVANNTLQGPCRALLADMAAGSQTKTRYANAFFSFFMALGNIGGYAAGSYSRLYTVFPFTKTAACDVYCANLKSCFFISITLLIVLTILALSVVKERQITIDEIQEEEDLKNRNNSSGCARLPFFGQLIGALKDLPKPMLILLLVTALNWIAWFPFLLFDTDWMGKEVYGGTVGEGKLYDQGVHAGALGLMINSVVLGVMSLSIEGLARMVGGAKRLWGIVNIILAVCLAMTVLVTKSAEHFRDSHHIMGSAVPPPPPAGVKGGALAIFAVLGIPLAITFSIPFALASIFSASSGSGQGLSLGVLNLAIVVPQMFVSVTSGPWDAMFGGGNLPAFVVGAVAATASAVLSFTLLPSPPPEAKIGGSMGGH
# Experimental: Yeast cells of the strain SUSY7 (Riesmeier et al., 1992, EMBO J. 11: 4705-4713) are used to identify substances which have an inhibitory effect on sucrose transporters from spinach. Cells of this strain are transformed with a cDNA sequence which codes for the sucrose transporter S21 (SoSUT1) from spinach and which ensures expression of a functional transporter in the cells. The yeast cells are cultured in minimal medium (SD+2% (w/v) sucrose, pH 3.8) at 28° C. and harvested in the logarithmic phase (OD600 =0.6). The cells are spun down at 4000 rpm for 10 minutes and washed twice with SD medium. A cell concentration of c=50 g/l in SD medium is adjusted according to the wet weight of the cells, and 200 μl aliquot fractions are taken. Before the actual reaction, the cells are incubated in 10 mM glucose for 5 min and adjusted to pH 3.8 with MES buffer. The reaction is started by adding 200 μl of a 0.2 mmol/l [14C]-sucrose solution (3 mCi/mmol) in SD medium (pH 3.8). After 20, 60, 120, 180 and 240 seconds, 70 μl portions of the suspension are removed and pipetted into 4 ml of ice-cold water in order to stop the reaction. The cells are filtered off on glass fiber filters and washed twice with ice-cold water. The radioactivity on the filters is subsequently determined in a liquid scintillation counter. The substances to be tested are added 30 seconds before addition of the sucrose. The uptake of radiolabeled sucrose without addition of a potential inhibitor is determined as one control. Cells of the strain SUSY7 which are not transformed with cDNA sequences coding for a sucrose transporter from spinach are employed as further control.
# The various tested substances, their concentration and the activity of the transporter, shown as percentage activity of the control in which no potential inhibitors were added, are indicated. Substances which specifically show an inhibitory effect on the sucrose transporter S21 (SoSUT1), are tested for their herbicidal and growth-regulating effect on whole plants.
# [3] = target: T3, ammonium transporter AMT1 (Arabidopsis thaliana, UniProt P54144); assay: cell-based
# T3 construct: expressed in transfected cells; host or cells: Saccharomyces cerevisiae 26972c (mutations in MEP1 and MEP2)
# T3 sequence (P54144 1-501): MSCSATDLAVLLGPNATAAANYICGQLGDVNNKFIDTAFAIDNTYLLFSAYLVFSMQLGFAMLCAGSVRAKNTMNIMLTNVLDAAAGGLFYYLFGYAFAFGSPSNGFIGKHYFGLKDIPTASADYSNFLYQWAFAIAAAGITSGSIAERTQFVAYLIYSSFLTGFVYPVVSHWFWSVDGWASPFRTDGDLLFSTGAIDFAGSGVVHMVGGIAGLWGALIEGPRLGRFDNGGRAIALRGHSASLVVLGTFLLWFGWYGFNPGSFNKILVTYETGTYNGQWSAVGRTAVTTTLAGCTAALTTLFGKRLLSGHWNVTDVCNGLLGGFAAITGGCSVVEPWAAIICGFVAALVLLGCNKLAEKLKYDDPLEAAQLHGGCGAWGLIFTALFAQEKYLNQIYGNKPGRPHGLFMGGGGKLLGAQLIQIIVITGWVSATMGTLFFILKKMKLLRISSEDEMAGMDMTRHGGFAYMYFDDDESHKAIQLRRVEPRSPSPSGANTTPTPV
# Experimental: The measurements of transport identify inhibitors of plant ammonium transporters are carried out with the structural analog methylamine because radiolabeled ammonium is not commercially obtainable.
# The yeast cells are transformed by standard methods with cDNA sequences which code for an ammonium transporter from plants and which permit expression of a functional transporter in the yeast cells. […] The cells are cultured in NAAG-medium (2% glucose, 1.7 g/l yeast nitrogen-base w/o amino acids and ammonium sulfate (Difco), supplemented with 500 μg/ml L-proline) at 28 degrees Celsius, and harvested in the logarithmic phase (OD660.=0.6). The cells are then spun down in a centrifuge at 4000 rpm and 4 degrees Celsius for 10 minutes, washed twice with 20 mM sodium phosphate buffer, pH 7, and taken up in the same buffer to an 0D660 of 8. 200 μl aliquot fractions of the cell suspension are taken. 5 minutes before the actual measurement,the yeasts are activated by addition of 100 mM glucose and incubated at 30 degrees Celsius. To start the reaction, 100 μl of the cell suspension are added to 100 µl of reaction mixture (20 mM Na phosphate buffer, pH7; 18.5 kBq of [^14 C]-methylamine (NEN); 100 M methylamine; substance to be tested depending on the experiment (see FIG. 4)). In each case 10, 60, 120 and 180 seconds after starting the reaction, 50 μl aliquots are taken, added to 4 ml of ice-cold 5 mM methylamine solution and filtered on glass fibre filters. After the filters have been washed with a further 8 ml of a methylamine solution, the radioactivity on the filters is subsequently determined in a liquid scintillation counter. Inhibitors are added 60 seconds before adding the glucose.
# The uptake of radiolabeled methylamine without addition of a potential inhibitor is determined as one control.
# [4] = test system: sucrose transporter P62 (StSUT1); assay: Activation of sucrose transport by preincubation of the yeast cells; assay type: cell-based, Solanum tuberosum
# Experimental: The transport of sucrose by the sucrose transporter P62 (StSUT1) from Solanum tuberosum can be increased by previous energizing of the yeast cells by incubation in glucose, stachyose and adenine. The same increase in transport activity is achieved by reducing the pH to pH 3.8 in the measurement. The measurement of transport to determine the activation takes place as described in Example 3 but the cells are incubated before the actual measurement not in 10 mM glucose for 5 min but in solutions of various concentrations of glucose, stachyose and adenine for 5 min. Yeast cells which are not incubated in solutions of these substances before the measurement act as control. The following table indicates the extent of activation of sucrose transport with various concentrations of glucose, stachyose and adenine compared with the control.
# [5] = pH 3.8, read-out: Activity relative to the control [%]
# [6] = [14C]-sucrose uptake, pH 3.8, tested substance 2 mM
# [7] = [14C]-methylamine uptake, tested substance 500 μM
# [8] = [14C]-sucrose uptake, pH 3.8, tested substance 2 mM, read-out: Activity relative to the control [%]
# [9] = tested substance 2 mM, read-out: Activity relative to the control [%]
# [10] = pH 7, read-out: Activity relative to the control [%]
# [11] = pH 7, [14C]-methylamine uptake, tested substance 500 μM, read-out: Activity relative to the control [%]
# [12] = [14C]-sucrose uptake, pH 3.8, read-out: Activity relative to the control [%]
compound,measurement,setting,value
CCN1C(=O)C=CC1=O [N-Ethylmaleimide],remaining activity at 1000 µM,"[1]; tested substance 1 mM, read-out: Activity relative to the control [%]",22%
OC[C@H]1OC(O)[C@H](O)[C@@H](O)[C@H]1O (some centres unmarked) [Galactose],remaining activity at 2000 µM,[2]; [5],97.7%
OC[C@H]1O[C@H](Oc2ccccc2)[C@H](O)[C@@H](O)[C@@H]1O [α-Phenylglucose],Activity relative to the control [%],[2]; [6],8.0%
same,Activity relative to the control [%],[1]; tested substance 2 mM,7%
Antimycin A,Activity relative to the control [%],"[3]; [14C]-methylamine uptake, tested substance 10 μg/ml",8%
OC[C@H]1OC(O)[C@@H](O)[C@@H](O)[C@@H]1O (some centres unmarked) [Mannose],remaining activity at 2000 µM,[2]; [5],86.5%
Cl.N [NH4 Cl],Activity relative to the control [%],[3]; [7],10%
OC[C@H]1O[C@H](OC[C@H]2O[C@H](O[C@]3(CO)O[C@H](CO)[C@@H](O)[C@@H]3O)[C@H](O)[C@@H](O)[C@@H]2O)[C@H](O)[C@@H](O)[C@H]1O [Raffinose],remaining activity at 2000 µM,[2]; [8],110%
same,remaining activity at 2000 µM,[1]; [9],110%
OC[C@H]1O[C@@H](O[C@H]2[C@H](O)[C@@H](O)[C@@H](O)O[C@@H]2CO)[C@H](O)[C@@H](O)[C@H]1O [α-Lactose],remaining activity at 2000 µM,[2]; [8],81.8%
OC[C@H]1OC(O)[C@H](O)[C@@H](O)[C@@H]1O (some centres unmarked) [Glucose],Activity relative to the control [%],"[4]; sucrose transport after 5 min preincubation with the substance at c1 [0.2 mol/l], 200000 µM",89 ± 5%
same,Activity relative to the control [%],[4]; sucrose transport after 5 min preincubation with the substance at c2 [2 mmol/l],90 ± 3%
CNC [Dimethylamine],remaining activity at 500 µM,[3]; [10],89%
O=C(CO)[C@@H](O)[C@@H](O)[C@H](O)CO [Tagatose],remaining activity at 2000 µM,[2]; [8],105%
same,remaining activity at 2000 µM,[1]; [9],103%
[Cl-].[Rb+] [RbCl],Activity relative to the control [%],[3]; [7],96%
[Cl-].[Cs+] [CsCl],Activity relative to the control [%],[3]; [7],98%
C[C@@H]1C[C@@H]([C@H](O)CC2CC(=O)NC(=O)C2)C(=O)[C@@H](C)C1 [Cycloheximide],remaining activity at 10 µg/mL,[3]; [10],85%
O=C(CO)[C@@H](O)[C@H](O)[C@H](O)CO[C@H]1O[C@H](CO)[C@@H](O)[C@H](O)[C@H]1O [Palatinose],remaining activity at 2000 µM,[2]; [8],85%
same,remaining activity at 2000 µM,[1]; [9],102%
Altrose,Activity relative to the control [%],[2]; [6],80.6%
CN(C)C [Trimethylamine],remaining activity at 500 µM,[3]; [11],89%
NC1CC(CO)C(O)C1O (centres unmarked),remaining activity at 1000 µM,[2]; [12],0%
Nc1ncnc2c1ncn2C1CC=CC1CO (centres unmarked),remaining activity at 1000 µM,[2]; [12],0%
[Cl-].[K+] [KCl],Activity relative to the control [%],[3]; [7],98%
OC[C@H]1O[C@@H](O[C@H]2[C@H](O)[C@@H](O)[C@H](O)O[C@@H]2CO)[C@H](O)[C@@H](O)[C@H]1O [β-Lactose],remaining activity at 2000 µM,[2]; [8],94.9%
same,remaining activity at 2000 µM,[1]; [9],91%
OC[C@H]1O[C@@](CO)(O[C@H]2O[C@H](CO)[C@@H](O)[C@H](O)[C@H]2O)[C@@H](O[C@H]2O[C@H](CO)[C@@H](O)[C@H](O)[C@H]2O)[C@@H]1O [Melizitose],remaining activity at 2000 µM,[2]; [8],97.2%
OC[C@H]1O[C@@H](O[C@H]2[C@H](O)[C@@H](O)C(O)O[C@@H]2CO)[C@H](O)[C@@H](O)[C@@H]1O (some centres unmarked) [Cellobiose],remaining activity at 2000 µM,[2]; [8],99.4%
C(=NC1CCCCC1)=NC1CCCCC1 [DCCD],remaining activity at 200 µM,"[3]; pH 7, [14C]-methylamine uptake, tested substance 200 μM, read-out: Activity relative to the control [%]",15%
OC[C@H]1O[C@H](OC[C@H]2OC(O)[C@H](O)[C@@H](O)[C@@H]2O)[C@H](O)[C@@H](O)[C@H]1O (some centres unmarked) [Melibiose],remaining activity at 2000 µM,[2]; [8],92.3%
CCN [Ethylamine],remaining activity at 500 µM,[3]; [11],93%

# Source: US5750362A, “Methods for identifying substances with a potential herbicidal or growth-regulating action by means of plant transporter proteins, the use of the transporter proteins, and substances with a herbicidal and growth-regulating action” (BASF Aktiengesellschaft, priority 1993, dated 1998)
